In paper PMC7998589, “A Radiobrominated Tyrosine Kinase Inhibitor for EGFR with L858R/T790M Mutations in Lung Carcinoma” (Pharmaceuticals, 2021):
Values belong to the compound of their own block, whether it stands above or below them.

Experiments:
[1] = tested on: H1975 and H441 tumors; assay: Biodistribution of double tracers in tumor-bearing mice; format: in vivo, BALB/c nu/nu mice
Procedure: Six weeks old male ddY mice and four weeks old female BALB/c nu/nu mice were purchased from Japan SLC Inc. (Hamamatsu, Japan). Tumor-bearing mice were prepared by subcutaneous injection of cells suspended in 100 μL medium to the female BALB/c nu/nu mice. H1975 cells (5 × 10^6 cells) were implanted in the right shoulder, and H441 cells (3 × 10^6 cells) were implanted in the left shoulder. The tumor reached palpable size after post-inoculation 12 and 9 days for H1975 and H441, respectively.
(§1) One month later, ^125I activity was determined.

[2] = tested on: H1975 (L858R/T790M double mutations EGFR); assay: Cellular uptake and blocking study, H1975; format: cell-based, human
Procedure: H1975 (1 × 10^5 cells/well), H441 (1 × 10^5 cells/well), and H3255 (2 × 10^5 cells/well) NSCLC cells were cultured in 6 well plates. Cells were incubated in medium with 10% FBS and 100 IU/mL penicillin–streptomycin at 37 °C in a humidified atmosphere with 5% CO2 for 24 h. […] The cells were dissolved by a 1.0 M NaOH aqueous solution (0.5 mL × 2). The cell lysate was transferred into a test tube. The radioactivity of ^77Br was measured by an auto well gamma counter at a 100–600 keV energy range. […] The BCA protein assay kit protocol was used to determine the protein concentration.

[3] = set-up: method as in PMID 32599930; settings: ref [9]; cited from earlier work
[4] = Biodistribution of double tracers in normal mice; format: in vivo; settings: ddY mice
Procedure: as §1

[5] = tested on: H1975 (EGFR L858R/T790M); assay: WST-8 cytotoxicity assay, H1975; format: cell-based; settings: Homo sapiens, NCI-H1975
Description: (§2) The data were statistically analyzed and presented as mean ± standard deviation (SD).

[6] = tested on: H3255 (EGFR L858R); assay: WST-8 cytotoxicity assay, H3255; format: cell-based; settings: Homo sapiens, NCI-H3255
Description: as §2

[7] = tested on: H441 (wild-type EGFR); assay: WST-8 cytotoxicity assay, H441; format: cell-based; settings: Homo sapiens, NCI-H441
Description: as §2

Biodistribution, Blood ([1]; 1 h after i.v. injection): 0.50 % ID/g | Biodistribution, Bone ([1]; 1 h after i.v. injection): 0.42 % ID/g | Biodistribution, Brain ([1]; 1 h after i.v. injection): 0.04 % ID/g | Biodistribution, H441 tumor ([1]; 1 h after i.v. injection): 0.44 % ID/g | Biodistribution, H1975 tumor ([1]; 1 h after i.v. injection): 0.68 % ID/g | Biodistribution, Heart ([1]; 1 h after i.v. injection): 0.61 % ID/g | Biodistribution, Kidney ([1]; 1 h after i.v. injection): 2.64 % ID/g | Biodistribution, Large intestine ([1]; 1 h after i.v. injection): 27.65 % ID/g | Biodistribution, Liver ([1]; 1 h after i.v. injection): 30.32 % ID/g | Biodistribution, Lung ([1]; 1 h after i.v. injection): 1.62 % ID/g | Biodistribution, Muscle ([1]; 1 h after i.v. injection): 0.36 % ID/g | Biodistribution, Pancreas ([1]; 1 h after i.v. injection): 2.71 % ID/g | Biodistribution, Small intestine ([1]; 1 h after i.v. injection): 86.29 % ID/g | Biodistribution, Spleen ([1]; 1 h after i.v. injection): 1.80 % ID/g | Biodistribution, Stomach ([1]; 1 h after i.v. injection): 1.49 % ID/organ | Biodistribution, Blood ([1]; 6 h after i.v. injection): 0.17 % ID/g | Biodistribution, Bone ([1]; 6 h after i.v. injection): 0.22 % ID/g | Biodistribution, Brain ([1]; 6 h after i.v. injection): 0.02 % ID/g | Biodistribution, H441 tumor ([1]; 6 h after i.v. injection): 0.19 % ID/g | Biodistribution, H1975 tumor ([1]; 6 h after i.v. injection): 0.10 % ID/g | Biodistribution, Heart ([1]; 6 h after i.v. injection): 0.53 % ID/g | Biodistribution, Kidney ([1]; 6 h after i.v. injection): 1.05 % ID/g | Biodistribution, Large intestine ([1]; 6 h after i.v. injection): 95.22 % ID/g | Biodistribution, Liver ([1]; 6 h after i.v. injection): 10.16 % ID/g | Biodistribution, Lung ([1]; 6 h after i.v. injection): 0.37 % ID/g | Biodistribution, Muscle ([1]; 6 h after i.v. injection): 0.10 % ID/g | Biodistribution, Pancreas ([1]; 6 h after i.v. injection): 0.36 % ID/g | Biodistribution, Small intestine ([1]; 6 h after i.v. injection): 11.72 % ID/g | Biodistribution, Spleen ([1]; 6 h after i.v. injection): 0.25 % ID/g | Biodistribution, Stomach ([1]; 6 h after i.v. injection): 1.17 % ID/organ | Biodistribution, Blood ([4]; 10 min after i.v. injection): 1.41 % ID/g | Biodistribution, Bone ([4]; 10 min after i.v. injection): 0.74 % ID/g | Biodistribution, Brain ([4]; 10 min after i.v. injection): 0.08 % ID/g | Biodistribution, Heart ([4]; 10 min after i.v. injection): 2.24 % ID/g | Biodistribution, Kidney ([4]; 10 min after i.v. injection): 9.66 % ID/g | Biodistribution, Large intestine ([4]; 10 min after i.v. injection): 0.94 % ID/g | Biodistribution, Liver ([4]; 10 min after i.v. injection): 19.21 % ID/g | Biodistribution, Lung ([4]; 10 min after i.v. injection): 3.61 % ID/g | Biodistribution, Muscle ([4]; 10 min after i.v. injection): 1.20 % ID/g | Biodistribution, Pancreas ([4]; 10 min after i.v. injection): 2.03 % ID/g | Biodistribution, Small intestine ([4]; 10 min after i.v. injection): 36.32 % ID/g | Biodistribution, Spleen ([4]; 10 min after i.v. injection): 2.73 % ID/g | Biodistribution, Stomach ([4]; 10 min after i.v. injection): 2.60 % ID/organ | Biodistribution, Blood ([4]; 1 h after i.v. injection): 0.17 % ID/g | Biodistribution, Bone ([4]; 1 h after i.v. injection): 0.16 % ID/g | Biodistribution, Brain ([4]; 1 h after i.v. injection): 0.01 % ID/g | Biodistribution, Heart ([4]; 1 h after i.v. injection): 0.30 % ID/g | Biodistribution, Kidney ([4]; 1 h after i.v. injection): 2.40 % ID/g | Biodistribution, Large intestine ([4]; 1 h after i.v. injection): 1.65 % ID/g | Biodistribution, Liver ([4]; 1 h after i.v. injection): 7.40 % ID/g | Biodistribution, Lung ([4]; 1 h after i.v. injection): 0.59 % ID/g | Biodistribution, Muscle ([4]; 1 h after i.v. injection): 0.23 % ID/g | Biodistribution, Pancreas ([4]; 1 h after i.v. injection): 0.86 % ID/g | Biodistribution, Small intestine ([4]; 1 h after i.v. injection): 40.99 % ID/g | Biodistribution, Spleen ([4]; 1 h after i.v. injection): 0.55 % ID/g | Biodistribution, Stomach ([4]; 1 h after i.v. injection): 1.64 % ID/organ | Biodistribution, Blood ([4]; 4 h after i.v. injection): 0.06 % ID/g | Biodistribution, Bone ([4]; 4 h after i.v. injection): 0.05 % ID/g | Biodistribution, Brain ([4]; 4 h after i.v. injection): 0.01 % ID/g | Biodistribution, Heart ([4]; 4 h after i.v. injection): 0.08 % ID/g | Biodistribution, Kidney ([4]; 4 h after i.v. injection): 0.75 % ID/g | Biodistribution, Large intestine ([4]; 4 h after i.v. injection): 81.54 % ID/g | Biodistribution, Liver ([4]; 4 h after i.v. injection): 6.45 % ID/g | Biodistribution, Lung ([4]; 4 h after i.v. injection): 0.16 % ID/g | Biodistribution, Muscle ([4]; 4 h after i.v. injection): 0.04 % ID/g | Biodistribution, Pancreas ([4]; 4 h after i.v. injection): 0.12 % ID/g | Biodistribution, Small intestine ([4]; 4 h after i.v. injection): 6.08 % ID/g | Biodistribution, Spleen ([4]; 4 h after i.v. injection): 0.20 % ID/g | Biodistribution, Stomach ([4]; 4 h after i.v. injection): 0.76 % ID/organ | Biodistribution, Blood ([4]; 24 h after i.v. injection): 0.13 % ID/g | Biodistribution, Bone ([4]; 24 h after i.v. injection): 0.09 % ID/g | Biodistribution, Feces ([4]; 24 h after i.v. injection): 71.54 % ID/organ | Biodistribution, Heart ([4]; 24 h after i.v. injection): 0.20 % ID/g | Biodistribution, Kidney ([4]; 24 h after i.v. injection): 0.54 % ID/g | Biodistribution, Large intestine ([4]; 24 h after i.v. injection): 0.52 % ID/g | Biodistribution, Liver ([4]; 24 h after i.v. injection): 1.40 % ID/g | Biodistribution, Lung ([4]; 24 h after i.v. injection): 0.14 % ID/g | Biodistribution, Muscle ([4]; 24 h after i.v. injection): 0.04 % ID/g | Biodistribution, Pancreas ([4]; 24 h after i.v. injection): 0.05 % ID/g | Biodistribution, Small intestine ([4]; 24 h after i.v. injection): 0.30 % ID/g | Biodistribution, Spleen ([4]; 24 h after i.v. injection): 0.13 % ID/g | Biodistribution, Stomach ([4]; 24 h after i.v. injection): 0.05 % ID/organ | Biodistribution, Urine ([4]; 24 h after i.v. injection): 1.63 % ID/organ | eliminated in feces ([4]; 24 h postinjection): up to 71%
SMILES: C=CC(=O)Nc1cc([125I])cc(Nc2nc(Nc3ccc(N4CCN(C(C)=O)CC4)cc3OC)ncc2C(F)(F)F)c1 [[^125I]ICO1686]
accumulation in H1975 versus H3255 and H441 ([2]; 4 h of incubation): significantly higher | reduction of uptake upon pretreatment with CO-1686 ([2]; H1975): ~60% | accumulation of radioactivity with pretreatment with excess CO-1686 ([2]; H1975, 4 h, CO-1686 100 µM blocking): 67.7 % dose/mg protein | accumulation of radioactivity (cell uptake) ([2]; H1975, 4 h incubation): 151.3 % dose/mg protein | effect of gefitinib on uptake ([2]; H1975, gefitinib 100 µM blocking): not significantly reduced | log P [3]: 1.84 ± 0.01

SMILES: C=CC(=O)Nc1cc(Br)cc(Nc2nc(Nc3ccc(N4CCN(C(C)=O)CC4)cc3OC)ncc2C(F)(F)F)c1 [compound 9, N-(3-{[2-({4-[4-acetylpiperazin-1-yl]-2-methoxyphenyl}amino)-5-(trifluoromethyl)pyrimidin-4-yl]amino}-5-bromophenyl)acrylamide]
IC50 [5]: 180 ± 60 nM | IC50 [6]: 200 ± 10 nM | IC50 [7]: 640 ± 40 nM
